# In US6627743B1, “6-O-methylerythromycin A crystal form III” (Abbott Laboratories, priority 1999, dated 2003):
# Tests used:
# [1] = Crystal form of the recrystallized solid after drying/heating, by powder X-ray diffraction; assay type: physicochemical
# Procedure: Solids from the recrystallization were prepared according to the methods described above and analyzed under standard conditions with a calibrated Scintag X-ray diffraction system.
# The wet solid was allowed to dry at room temperature. The air-dried sample was analyzed and the powder X-ray diffraction data was consistent with the powder X-ray diffraction pattern of a 6-O-methylerythromycin A Form III crystal structure. The air-dried sample was heated to a temperature between about 40° C. to about 45° C. in a calibrated vacuum oven for five days at atmospheric pressure.
# A wet solid sample obtained from the recrystallization was heated in a calibrated convection oven to a temperature between about 100° C. and 105° C. […] The testing conditions and the corresponding result are summarized below in Table 1.
# Crystallographic data was obtained by solvate single crystal analysis using a Scintag XDS-2000 powder X-ray diffraction system. Samples for X-ray diffraction analysis were prepared by spreading the sample powder (with no prior grinding required) in a thin layer on the sample holder and gently flattening the sample with a microscope slide. A Scintag X-ray Diffraction system was used with the following parameters: X-ray source is CuKα; range is 2-35°; scan rate is 1.00 degree/minute; step size is 0.0300 degree; and wavelength is 1.54060 angstroms.
# [2] = Thermogravimetric analysis of the Form III solvate; assay type: physicochemical; details: 6 milligram sample, nitrogen purge, increase of 5° C. per minute (FIG. 4)
# Procedure: Suitable temperatures for the conversion of the Form III solvate to the Form II crystal structure of 6-O-methylerythromycin A can vary depending on the conditions of the reaction. […] At atmospheric pressure, the preferred temperatures for the conversion of the Form III solvate to Form II are from about 80° C. to about 180° C. The more preferred temperatures for the conversion are from about 90° C. to about 105° C. Thermogravimetric analysis was conducted in the following manner. A T.A. Instruments Hi-Res thermogravimetric analyzer with Thermogravimetric Analyzer module 2950 was used along with DuPont 2100 TGA software version 5.1 A. The analysis parameters were: sample weight 6.3640 milligrams; heating rate was room temperature to 200° C. at 5° C./minute under a nitrogen purge.
smiles,measurement,setting,value
"CC[C@H]1OC(=O)[C@H](C)[C@@H](OC2CC(C)(OC)C(O)C(C)O2)[C@H](C)[C@@H](OC2OC(C)CC(N(C)C)C2O)[C@@](C)(OC)C[C@@H](C)C(=O)[C@H](C)[C@@H](O)[C@]1(C)O (some centres unmarked) [Sample 4, 6-O-methylerythromycin A]",Analytical Result (crystal form by powder X-ray diffraction),"[1]; heat to 100° C.-105° C., 24 hours",Form II spectra
"CC[C@H]1OC(=O)[C@H](C)[C@@H](OC2CC(C)(OC)C(O)C(C)O2)[C@H](C)[C@@H](OC2OC(C)CC(N(C)C)C2O)[C@@](C)(OC)C[C@@H](C)C(=O)[C@H](C)[C@@H](O)[C@]1(C)O (some centres unmarked) [Sample 2, 6-O-methylerythromycin A acetonitrile solvate]",Analytical Result (crystal form by powder X-ray diffraction),"[1]; air dried solid, room temperature",Form III spectra
"CC[C@H]1OC(=O)[C@H](C)[C@@H](OC2CC(C)(OC)C(O)C(C)O2)[C@H](C)[C@@H](OC2OC(C)CC(N(C)C)C2O)[C@@](C)(OC)C[C@@H](C)C(=O)[C@H](C)[C@@H](O)[C@]1(C)O (some centres unmarked) [Sample 1, 6-O-methylerythromycin A acetonitrile solvate]",Analytical Result (crystal form by powder X-ray diffraction),[1]; wet solid from acetonitrile recrystallization,Form III spectra
"CC[C@H]1OC(=O)[C@H](C)[C@@H](OC2CC(C)(OC)C(O)C(C)O2)[C@H](C)[C@@H](OC2OC(C)CC(N(C)C)C2O)[C@@](C)(OC)C[C@@H](C)C(=O)[C@H](C)[C@@H](O)[C@]1(C)O (some centres unmarked) [Sample 3, 6-O-methylerythromycin A acetonitrile solvate]",Analytical Result (crystal form by powder X-ray diffraction),"[1]; heat 40° C.-45° C., 5 days",Form III spectra
"CC[C@H]1OC(=O)[C@H](C)[C@@H](OC2CC(C)(OC)C(O)C(C)O2)[C@H](C)[C@@H](OC2OC(C)CC(N(C)C)C2O)[C@@](C)(OC)C[C@@H](C)C(=O)[C@H](C)[C@@H](O)[C@]1(C)O (some centres unmarked) [Form III solvate, 6-O-methylerythromycin A acetonitrile solvate]",Temperature of conversion of Form III solvate to Form II crystal structure,[2],about 175 °C
